{"source": "patent US20140221286A1", "about": "“SODIUM CHANNEL BLOCKERS REDUCE GLUCAGON SECRETION” (Gilead Sciences, Inc., priority 2011, published 2014)", "assay_type_in_all_cases": "cell-based", "key": {"rat pancreatic islets [1]": {"system": "rat pancreatic islets", "test": "Glucagon secretion in rat pancreatic islets under low glucose (3 mM), ELISA", "conditions": "3 mM glucose"}, "rat pancreatic islets [2]": {"system": "rat pancreatic islets", "test": "Arginine-induced glucagon secretion in rat pancreatic islets", "conditions": "L-arginine 20 mM"}, "[3]": {"system": "rat isolated pancreatic α-cell", "test": "Spontaneous electrical activity of isolated pancreatic α-cells (membrane potential recording)", "description": "Acutely isolated pancreatic islets were allowed to recover overnight at 37° C./5% CO2 in Islet Media (RMPI 1640 supplemented with 10 mM HEPES, 1 mM sodium pyruvate, 10% FBS, 100 U/mL penicillin, 100 μg/mL streptomycin, 2 mM L-glutamine). The islets were resuspended and then centrifuged for 3 minutes at 200×g. […] The number of live cells was counted and diluted to 1×10^5 with Islet Media. […]\nMembrane potential and ion channel currents were recorded 24-72 hours after dispersion using the perforated patch configuration. […] Series resistance (Rs) was monitored using a voltage step from −70 mV to 0 mV (5 ms, 0.5 Hz) and was allowed to stabilize prior to beginning the experiment (Rs<30 MOhm).\nThe identity of the α-cell was confirmed using cell size (membrane capacitance <6 pF) and the presence of electrical activity in low (3 mM) extracellular glucose, which are hallmarks of dispersed α-cells. […] All recordings were made using pClamp 10.2 and were analyzed using Microsoft Excel 2003, Graphpad Prism7 or OriginPro7.\nRecordings of membrane potential were made at 32° C. […] Representative records (30 sec) were analyzed using the event detection feature (threshold of 10 mV) to quantitate the spontaneous firing frequency and total charge movement. The membrane potential between events was measured for changes induced by the compound. […]"}, "hNaV1.3": {"target": "T1, hNaV1.3 (Homo sapiens, UniProt Q9NY46)", "T1 construct": "(Vanderbilt University, Nashville, Tenn.)", "T1 sequence (Q9NY46 1-1951 isoform Q9NY46-4)": "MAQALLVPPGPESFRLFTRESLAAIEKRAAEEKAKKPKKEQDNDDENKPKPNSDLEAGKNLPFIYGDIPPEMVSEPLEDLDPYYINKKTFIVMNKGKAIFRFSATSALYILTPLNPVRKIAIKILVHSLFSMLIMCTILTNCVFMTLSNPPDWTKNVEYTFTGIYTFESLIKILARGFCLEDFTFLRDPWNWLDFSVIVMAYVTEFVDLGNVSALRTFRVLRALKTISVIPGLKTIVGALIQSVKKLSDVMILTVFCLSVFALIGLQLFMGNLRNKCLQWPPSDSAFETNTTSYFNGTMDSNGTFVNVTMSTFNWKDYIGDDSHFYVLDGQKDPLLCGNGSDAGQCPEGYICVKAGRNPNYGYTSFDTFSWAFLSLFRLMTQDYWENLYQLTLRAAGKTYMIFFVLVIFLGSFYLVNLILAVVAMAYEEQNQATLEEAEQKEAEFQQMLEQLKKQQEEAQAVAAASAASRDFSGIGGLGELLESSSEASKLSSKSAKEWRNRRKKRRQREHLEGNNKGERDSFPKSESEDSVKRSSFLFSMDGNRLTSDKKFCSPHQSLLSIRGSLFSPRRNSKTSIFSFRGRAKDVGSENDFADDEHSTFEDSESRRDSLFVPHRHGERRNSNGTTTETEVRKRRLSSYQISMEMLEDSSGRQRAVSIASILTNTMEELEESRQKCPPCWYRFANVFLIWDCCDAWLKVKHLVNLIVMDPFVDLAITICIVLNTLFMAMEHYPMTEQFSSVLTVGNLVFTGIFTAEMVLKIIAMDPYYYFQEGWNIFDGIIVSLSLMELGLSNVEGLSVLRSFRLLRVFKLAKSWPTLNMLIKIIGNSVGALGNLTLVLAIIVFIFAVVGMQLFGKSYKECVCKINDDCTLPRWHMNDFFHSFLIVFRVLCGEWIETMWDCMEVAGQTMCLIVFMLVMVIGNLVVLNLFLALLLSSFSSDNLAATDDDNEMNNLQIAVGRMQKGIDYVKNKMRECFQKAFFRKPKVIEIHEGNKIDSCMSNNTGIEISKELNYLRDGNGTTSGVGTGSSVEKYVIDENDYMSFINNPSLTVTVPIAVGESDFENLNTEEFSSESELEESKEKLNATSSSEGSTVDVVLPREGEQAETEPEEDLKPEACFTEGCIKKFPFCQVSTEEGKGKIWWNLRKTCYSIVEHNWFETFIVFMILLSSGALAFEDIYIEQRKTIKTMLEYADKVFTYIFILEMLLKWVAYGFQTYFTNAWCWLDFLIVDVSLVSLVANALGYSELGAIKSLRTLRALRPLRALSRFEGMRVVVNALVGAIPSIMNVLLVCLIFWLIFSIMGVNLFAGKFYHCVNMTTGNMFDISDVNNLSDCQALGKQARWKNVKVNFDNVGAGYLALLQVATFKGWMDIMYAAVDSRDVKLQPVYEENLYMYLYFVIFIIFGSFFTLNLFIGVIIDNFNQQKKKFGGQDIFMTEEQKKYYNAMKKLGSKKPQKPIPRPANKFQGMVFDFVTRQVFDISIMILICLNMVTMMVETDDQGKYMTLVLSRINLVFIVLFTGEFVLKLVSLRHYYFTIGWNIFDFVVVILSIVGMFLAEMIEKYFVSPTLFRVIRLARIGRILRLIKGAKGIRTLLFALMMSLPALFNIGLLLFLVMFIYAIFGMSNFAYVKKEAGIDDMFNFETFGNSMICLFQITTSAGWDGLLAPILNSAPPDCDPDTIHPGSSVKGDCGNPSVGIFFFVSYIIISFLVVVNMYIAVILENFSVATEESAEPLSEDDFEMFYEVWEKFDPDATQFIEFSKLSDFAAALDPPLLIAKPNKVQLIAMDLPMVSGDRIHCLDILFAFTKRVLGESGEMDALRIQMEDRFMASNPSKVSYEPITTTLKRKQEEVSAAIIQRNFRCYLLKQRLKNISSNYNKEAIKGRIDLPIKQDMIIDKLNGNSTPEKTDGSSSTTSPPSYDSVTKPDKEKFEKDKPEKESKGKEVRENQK", "T1 sequence (Q07699 19-218 partner)": "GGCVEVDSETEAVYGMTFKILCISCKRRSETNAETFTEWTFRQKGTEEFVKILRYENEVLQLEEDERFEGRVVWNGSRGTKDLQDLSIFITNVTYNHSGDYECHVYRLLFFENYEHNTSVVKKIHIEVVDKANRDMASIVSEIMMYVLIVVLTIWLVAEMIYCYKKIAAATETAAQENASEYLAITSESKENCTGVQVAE", "T1 sequence (O60939 30-215 partner)": "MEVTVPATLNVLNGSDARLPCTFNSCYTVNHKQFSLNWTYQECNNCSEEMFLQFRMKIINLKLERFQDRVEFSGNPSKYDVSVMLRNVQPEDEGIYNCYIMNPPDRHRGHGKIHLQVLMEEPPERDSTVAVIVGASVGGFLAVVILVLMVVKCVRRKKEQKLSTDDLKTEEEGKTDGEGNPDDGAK", "test": "Voltage-dependent block (VDB) of hNaV1.3, QPatch whole-cell voltage-clamp in HEK-293 cells", "conditions": "8 s prepulse to -55 mV; at a given concentration (not given)", "description": "Voltage-dependent block (VDB) of […] was determined by whole-cell voltage-clamp recordings of sodium current using a QPatch 16× automated electrophysiological system in HEK 293 cells overexpressing Nav 1.3 and Nav 1.7 sodium channels, respectively. VDB of peak current was measured using an 8 s conditioning prepulse (to -55 mV for NaV1.3 and to −60 mV for […]) followed by a test pulse (0 mV, 20 ms). Currents are normalized to the peak current recorded in the absence of drug and expressed as percent inhibition. […] Glucagon secretion in the cells was induced by the treatment with veratridine at 30 μM for 1 hour in Krebs-Ringer buffer containing 0.1% BSA. Percent inhibition of glucagon secretion by Na channel blockers was calculated from the reduction of veratridine-induced glucagon secretion in the absence of drug.\n(Vanderbilt University, Nashville, Tenn.). The cells were continuously maintained in a humidified, 5% CO2 atmosphere at 37° C. in DMEM high glucose growth medium supplemented with 10% FBS, 2 mM L-glutamine, 100 U/mL penicillin, 100 μg/mL streptomycin, 1 mg/mL G418 and 3 μg/mL puromycin.\nWhole-cell voltage-clamp recordings were used to measure the activity of test compounds against hNaV1.3 and hNaV1.7. Sodium currents were recorded at room temperature using a QPatch 16× automated electrophysiological system (Sophion Bioscience, Copenhagen, Denmark). Cells were washed with PBS and then incubated with Detachin for 2 minutes at room temperature. Cells were then resuspended in growth media, pelleted by centrifugation and resuspended in CHO-S-SFM II serum free media supplemented with 100 U/mL penicillin, 100 μg/mL streptomycin and 10 mM HEPES. The cells were allowed to recover for 30 min at room temperature with constant stirring and then loaded into the QPatch cell holder.\nThe cells were loaded into primed single hole (2 MΩ) large QPlates and the whole-cell configuration was established using the default protocol. Cells were allowed to stabilize for 10 min after establishment of the whole-cell configuration before current was measured. […] All currents are low-pass Bessel filtered at 5 kHz and digitized at 50 kHz.\nSpecific voltage-clamp protocols assessing voltage-dependent block (VDB, also termed state-dependent block) are used. VDB of peak current was measured following an 8 s conditioning prepulse (to -55 mV for NaV1.3 and to −60 mV for NaV1.7) followed by a test pulse to 0 mV (20 ms). An interpulse (−120 mV, 10 ms) was used to recover non-drug bound channels from fast inactivation. The prepulse potential was determined by the steady-state inactivation curves for NaV1.3 and NaV1.7. […] Multiple applications of drug were used to ensure complete solution exchange and the cells were allowed to stabilize in the drug containing solution for two minutes. Currents were normalized to the peak current recorded in the absence of drug and expressed as percent inhibition."}}}
{"smiles": "FC(F)(F)Oc1ccc(-c2ccc3nnc(C(F)(F)F)n3c2)cc1", "note": "[Compound A, 6-(4-(trifluoromethoxy)phenyl)-3-(trifluoromethyl)-[1,2,4]triazolo[4,3-α]pyridine]", "values": [{"measurement": "maximal reduction of glucagon secretion as compared to the vehicle control", "setting": "rat pancreatic islets [1]; at 3 μM", "result": "53±8", "unit": "%"}, {"measurement": "reduction of L-arginine-induced increase in glucagon secretion", "setting": "rat pancreatic islets [2]; at 1 μM", "result": "24±6", "unit": "%"}, {"measurement": "reduction of spontaneous electrical activity", "setting": "[3]; at 0.3 μM", "result": 75, "unit": "%"}, {"measurement": "hNav1.3 VDB % Inhibition", "setting": "hNaV1.3", "result": 65.42, "unit": "%"}]}
{"smiles": "COc1ccccc1OCC(O)CN1CCN(CC(=O)Nc2c(C)cccc2C)CC1", "note": "(racemic) [Ranolazine, ±-N-(2,6-dimethylphenyl)-4-[2-hydroxy-3-(2-methoxyphenoxy)-propyl]-1-piperazineacetamide]", "values": [{"measurement": "maximal reduction of glucagon secretion as compared to the vehicle control", "setting": "rat pancreatic islets [1]; at 30 μM", "result": "53±6", "unit": "%"}, {"measurement": "reduction of L-arginine-induced increase in glucagon secretion", "setting": "rat pancreatic islets [2]; at 10 μM", "result": "31±9", "unit": "%"}, {"measurement": "reduction of spontaneous electrical activity", "setting": "[3]; 10 μM", "result": 44, "unit": "%"}, {"measurement": "hNav1.3 VDB % Inhibition", "setting": "hNaV1.3", "result": 11.21, "unit": "%"}]}
